The results in this text go back to US10968222B2, “2-azabicyclo hexane JAK inhibitor compound” (THERAVANCE BIOPHARMA R&D IP, LLC, priority 2018, dated 2021).

The term inhibition denotes the drop in the measured response relative to a control, in per cent. A low value points to a response near the control.

For series [1], the target named is T1, JAK2 (Homo sapiens, UniProt O60674).
T1 construct: GST; purchased Life Technologies
Description: Biochemical JAK kinase assay (LanthaScreen), JAK2. The settings on record: converted from pIC50 by Cheng-Prusoff; 3 μM ATP; read-out: JAK 2 pKi (converted). How it is done:
(§1) A panel of four LanthaScreen JAK biochemical assays (JAK1, 2, 3 and Tyk2) were carried in a common kinase reaction buffer (50 mM HEPES, pH 7.5, 0.01% Brij-35, 10 mM MgCl2, and 1 mM EGTA). Recombinant GST-tagged JAK enzymes and a GFP-tagged STAT1 peptide substrate were obtained from Life Technologies.
(§2) Serially diluted compound was pre-incubated with each of the four JAK enzymes and the substrate in white 384-well microplates (Corning) at ambient temperature for 1 h. ATP was subsequently added to initiate the kinase reactions in 10 μL total volume, with 1% DMSO. […] The plates were allowed to incubate at ambient temperature for 1 h before being read on the EnVision reader (Perkin Elmer). Emission ratio signals (520 nm/495 nm) were recorded and utilized to calculate the percent inhibition values based on DMSO and background controls.
(§3) For dose-response analysis, percent inhibition data were plotted vs. compound concentrations, and IC50 values were determined from a 4-parameter robust fit model with the Prism software (GraphPad Software). Results were expressed as pIC50 (negative logarithm of IC50) and subsequently converted to pKi (negative logarithm of dissociation constant, Ki) using the Cheng-Prusoff equation.
On the technique in general: TR-FRET usually uses a lanthanide donor and a delayed reading to cut background.

The target in series [2] is T2, JAK3 (Homo sapiens, UniProt P52333).
T2 construct: GST; purchased Life Technologies
T2 sequence (P52333 whole entry): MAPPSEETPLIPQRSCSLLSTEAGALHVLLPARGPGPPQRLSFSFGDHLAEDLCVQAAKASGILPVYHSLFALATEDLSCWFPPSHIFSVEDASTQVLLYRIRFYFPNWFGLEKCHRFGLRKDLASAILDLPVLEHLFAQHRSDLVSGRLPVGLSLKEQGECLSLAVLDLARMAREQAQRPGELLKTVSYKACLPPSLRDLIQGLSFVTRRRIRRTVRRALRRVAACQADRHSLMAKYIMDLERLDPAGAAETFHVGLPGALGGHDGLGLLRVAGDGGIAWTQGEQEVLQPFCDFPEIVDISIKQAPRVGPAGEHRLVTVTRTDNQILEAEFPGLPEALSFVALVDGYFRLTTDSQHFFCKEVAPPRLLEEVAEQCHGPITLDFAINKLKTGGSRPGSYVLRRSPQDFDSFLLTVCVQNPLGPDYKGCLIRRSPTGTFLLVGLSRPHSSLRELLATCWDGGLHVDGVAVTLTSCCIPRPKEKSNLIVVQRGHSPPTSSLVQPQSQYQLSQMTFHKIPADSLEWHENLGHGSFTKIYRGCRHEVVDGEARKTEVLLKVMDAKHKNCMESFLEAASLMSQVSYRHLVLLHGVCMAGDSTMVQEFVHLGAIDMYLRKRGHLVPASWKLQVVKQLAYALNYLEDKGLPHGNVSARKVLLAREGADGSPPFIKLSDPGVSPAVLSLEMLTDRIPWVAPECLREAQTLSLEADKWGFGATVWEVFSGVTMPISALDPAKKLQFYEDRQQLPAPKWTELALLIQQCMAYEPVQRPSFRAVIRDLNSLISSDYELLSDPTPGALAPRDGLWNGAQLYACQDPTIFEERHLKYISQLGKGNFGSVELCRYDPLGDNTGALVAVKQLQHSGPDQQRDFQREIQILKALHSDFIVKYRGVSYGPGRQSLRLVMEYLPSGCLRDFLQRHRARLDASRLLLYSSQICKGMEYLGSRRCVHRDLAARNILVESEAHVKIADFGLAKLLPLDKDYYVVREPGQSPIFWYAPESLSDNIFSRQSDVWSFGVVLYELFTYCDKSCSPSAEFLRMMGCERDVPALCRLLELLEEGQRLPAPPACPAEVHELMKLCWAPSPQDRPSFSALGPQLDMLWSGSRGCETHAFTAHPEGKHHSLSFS
Nature of the series: Biochemical JAK kinase assay (LanthaScreen), JAK3. The settings on record: converted from pIC50 by Cheng-Prusoff; 1.6 μM ATP; read-out: JAK 3 pKi (converted). How it is done:
as §1, §2, §3

Series [3] relates to IL-6 induced pSTAT3 in rat retina/choroid. Nature of the series: Pharmacodynamic assay: inhibition of IL6-induced pSTAT3 in rats. Format: in vivo. The settings on record: rat retina/choroid homogenates; 45 μg intravitreal dose; one hour after injection. How it is done: The ability of a single intravitreal administration of test compound to inhibit IL-6 induced pSTAT3 was measured in rat retina/choroid homogenates.
A solution formulation was prepared by dissolving compound 1 in 1% HPMC E5+15% HPβCD, pH7 to attain a target concentration of […]. Female Lewis rats were intravitreally (IVT) dosed (5 μL per eye) with either the vehicle, vehicle plus rat IL-6 (Peprotech; 0.5 μg), or a combination of IL-6 plus compound (0.5 μg IL-6 and 45 μg compound 1). Ocular tissues were dissected one hour after the IVT injection. The retina/choroid tissues were homogenized and pSTAT3 levels were measured using an AlphaLisa (PerkinElmer). The percent inhibition of IL-6-induced pSTAT3 was calculated in comparison to the vehicle and IL-6 groups.

Series [4] in a line: Lung and plasma pharmacokinetics in mice. Format: in vivo, mouse. The conditions noted are these: BALB/c mice. How it is done: Plasma and lung concentrations of compound 1 and ratios thereof were determined in the following manner. BALB/c mice from Charles River Laboratories were used in the assay. Compound 1 was formulated in 20% propylene glycol in citrate buffer (pH 4) at a concentration of 0.324 mg/mL as a solution. 50 μL of the solution formulation was introduced into the trachea of a mouse by oral aspiration. At various time points (0.167, 2, 6 hr) post dosing, blood samples were removed via cardiac puncture and intact lungs were excised from the mice. Blood samples were centrifuged (Eppendorf centrifuge, 5804R) for 4 minutes at approximately 12,000 rpm at 4° C. to collect plasma. Lungs were padded dry, weighed, and homogenized in 0.6 mL sterile water. Plasma and lung concentrations of compound 1 were determined by LC-MS analysis against analytical standards constructed into a standard curve in the test matrix. […] The lung-to-plasma ratio was determined as the ratio of the lung AUC in μg hr/g to the plasma AUC in μg hr/mL (where AUC is conventionally defined as the area under the curve of test compound concentration vs. time).

Series [5] has as its target T3, CDK9 (Homo sapiens, UniProt P50750).
T3 construct: made in house; host or cells: E. coli BL21-derived host (T7 phage) or HEK-293 cells
Nature of the series: Kinome screen, CDK9. Format: binding. The conditions noted are these: screened at 1 μM. How it is done:
(§4) Compounds 1 and C-1 were screened against other kinases to evaluate their selectivity profile.
(§5) Kinase-tagged T7 phage strains were grown in parallel in 24-well blocks in an E. coli host derived from the BL21 strain. E. coli were grown to log-phase and infected with T7 phage from a frozen stock (multiplicity of infection=0.4) and incubated with shaking at 32° C. until lysis (90-150 minutes). The lysates were centrifuged (6,000×g) and filtered (0.2 μm) to remove cell debris. The remaining kinases were produced in HEK-293 cells and subsequently tagged with DNA for qPCR detection.
(§6) Streptavidin-coated magnetic beads were treated with biotinylated small molecule ligands for 30 minutes at room temperature to generate affinity resins for kinase assays. The liganded beads were blocked with excess biotin and washed with blocking buffer (SeaBlock (Pierce), 1% BSA, 0.05% Tween 20, 1 mM DTT) to remove unbound ligand and to reduce non-specific phage binding. Binding reactions were assembled by combining kinases, liganded affinity beads, and test compounds in 1× binding buffer (20% SeaBlock, 0.17×PBS, 0.05% Tween 20, 6 mM DTT). Test compounds were prepared as 40× stocks in 100% DMSO and directly diluted into the assay. All reactions were performed in polypropylene 384-well plates in a final volume of 0.04 ml. […] The kinase concentration in the eluates was measured by qPCR. […]

The target in series [6] is T4, SRC (Homo sapiens, UniProt P12931).
T4 construct: made in house; host or cells: E. coli BL21-derived host (T7 phage) or HEK-293 cells
T4 sequence (P12931 whole entry): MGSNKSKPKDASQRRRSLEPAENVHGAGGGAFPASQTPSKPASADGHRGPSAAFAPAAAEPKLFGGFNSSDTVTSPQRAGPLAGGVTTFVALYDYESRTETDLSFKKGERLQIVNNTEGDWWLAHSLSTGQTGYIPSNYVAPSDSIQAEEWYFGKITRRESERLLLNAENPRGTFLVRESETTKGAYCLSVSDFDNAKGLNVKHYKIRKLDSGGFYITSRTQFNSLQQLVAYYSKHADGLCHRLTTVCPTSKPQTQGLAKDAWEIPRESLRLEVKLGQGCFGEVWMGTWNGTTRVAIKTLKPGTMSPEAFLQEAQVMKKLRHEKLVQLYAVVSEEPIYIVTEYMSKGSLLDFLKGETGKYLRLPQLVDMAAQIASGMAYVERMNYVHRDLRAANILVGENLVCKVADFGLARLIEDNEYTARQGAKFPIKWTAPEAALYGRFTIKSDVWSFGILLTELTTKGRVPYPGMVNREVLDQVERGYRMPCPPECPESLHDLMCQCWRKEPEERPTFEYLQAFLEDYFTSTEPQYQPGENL
Description: Kinome screen, SRC. Format: binding. The conditions noted are these: screened at 1 μM. How it is done: as §4, §5, §6

Series [7] has as its target T5, SYK (Homo sapiens, UniProt P43405).
T5 construct: made in house; host or cells: E. coli BL21-derived host (T7 phage) or HEK-293 cells
Nature of the series: Kinome screen, SYK. The format is binding. The conditions noted are these: screened at 1 μM. How it is done: as §4, §5, §6

T1 sequence (O60674 whole entry): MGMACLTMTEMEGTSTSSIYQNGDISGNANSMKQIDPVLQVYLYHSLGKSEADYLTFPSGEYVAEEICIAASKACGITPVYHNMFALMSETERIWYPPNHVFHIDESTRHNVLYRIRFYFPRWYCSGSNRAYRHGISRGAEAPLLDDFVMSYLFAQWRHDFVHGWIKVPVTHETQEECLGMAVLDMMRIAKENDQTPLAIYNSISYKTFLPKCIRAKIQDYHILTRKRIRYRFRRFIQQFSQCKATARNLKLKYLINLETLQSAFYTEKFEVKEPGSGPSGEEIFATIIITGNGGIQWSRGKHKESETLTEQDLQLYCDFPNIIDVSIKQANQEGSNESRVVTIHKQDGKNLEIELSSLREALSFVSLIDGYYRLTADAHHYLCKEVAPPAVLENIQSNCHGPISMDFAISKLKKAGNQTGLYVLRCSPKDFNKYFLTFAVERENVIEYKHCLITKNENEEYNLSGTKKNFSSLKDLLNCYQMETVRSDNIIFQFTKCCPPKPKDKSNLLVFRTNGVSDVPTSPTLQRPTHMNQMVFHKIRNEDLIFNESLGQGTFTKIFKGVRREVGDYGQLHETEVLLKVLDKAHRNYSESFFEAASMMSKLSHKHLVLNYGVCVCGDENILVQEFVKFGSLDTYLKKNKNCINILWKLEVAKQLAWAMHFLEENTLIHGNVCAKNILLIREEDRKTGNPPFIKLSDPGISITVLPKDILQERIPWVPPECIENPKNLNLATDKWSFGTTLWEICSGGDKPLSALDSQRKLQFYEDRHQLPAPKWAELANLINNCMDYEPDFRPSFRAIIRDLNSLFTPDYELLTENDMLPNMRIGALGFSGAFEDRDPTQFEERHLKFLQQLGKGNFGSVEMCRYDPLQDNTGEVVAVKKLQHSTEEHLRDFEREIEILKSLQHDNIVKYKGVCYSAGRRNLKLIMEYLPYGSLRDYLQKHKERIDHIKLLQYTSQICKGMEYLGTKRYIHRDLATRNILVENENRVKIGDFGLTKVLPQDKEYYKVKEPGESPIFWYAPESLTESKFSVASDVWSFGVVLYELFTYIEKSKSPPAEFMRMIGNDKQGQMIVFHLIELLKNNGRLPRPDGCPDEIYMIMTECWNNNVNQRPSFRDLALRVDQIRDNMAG
T3 sequence (P50750 whole entry): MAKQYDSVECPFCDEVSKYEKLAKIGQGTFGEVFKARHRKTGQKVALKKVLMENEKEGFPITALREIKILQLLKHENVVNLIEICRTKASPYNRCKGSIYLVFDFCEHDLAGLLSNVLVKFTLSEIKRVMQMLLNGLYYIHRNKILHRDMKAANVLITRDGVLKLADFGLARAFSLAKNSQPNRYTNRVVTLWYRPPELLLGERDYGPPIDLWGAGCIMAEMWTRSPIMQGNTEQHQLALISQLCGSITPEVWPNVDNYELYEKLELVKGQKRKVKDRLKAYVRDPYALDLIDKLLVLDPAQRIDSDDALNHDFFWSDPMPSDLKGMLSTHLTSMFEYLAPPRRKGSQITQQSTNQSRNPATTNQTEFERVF

`CCc1cc(O)c(F)cc1-c1cc(F)c2c(-c3nc4c([nH]3)CCN(C(=O)[C@]35C[C@H]3CCN5)C4)n[nH]c2c1` [Compound 1, (1S,5R)-2-azabicyclo[3.1.0]hexan-1-yl(2-(6-(2-ethyl-5-fluoro-4-hydroxyphenyl)-4-fluoro-1H-indazol-3-yl)-6,7-dihydro-3H-imidazo[4,5-c]pyridin-5(4H)-yl)methanone]: the figures for the Ki in series [1] and in series [2] were 0.0631 nM and 0.251 nM, respectively. Moreover, the “inhibition of IL-6-induced pSTAT3” value in series [3] stood at 84%. Further, the “lung AUC (0-6 hr)” value in series [4] (oral aspiration of 50 μL of 0.324 mg/mL solution) is 43.5 µg·h/g. In addition, the Kp in series [4] (mouse, 16.2 µg/mouse, oral aspiration, lung AUC in μg hr/g to plasma AUC in μg hr/mL, read-out: lung-to-plasma AUC ratio) amounted to 59.6. In addition, the inhibition at 1 µM in series [5] is 13%; in series [6], 65%; in series [7] it was 44%.
